≈ marks a conversion by molar mass, not a printed value.
Tests used:
[1] = system: Staphylococcus aureus 446; assay: broth micro-dilution MIC; format: cell-based
Description: (§1) The MIC's were determined using a standard broth micro-dilution assay.

[2] = system: Staphylococcus aureus 447; assay: broth micro-dilution MIC; format: cell-based
Description: as §1

[3] = system: Staphylococcus aureus 489; assay: broth micro-dilution MIC; format: cell-based
Description: as §1

[4] = system: Staphylococcus aureus X778; assay: broth micro-dilution MIC; format: cell-based
Description: as §1

Entercoccus faecium 276 = assay: broth micro-dilution MIC; format: cell-based
Description: as §1

[5] = system: Staphylococcus aureus 491; assay: broth micro-dilution MIC; format: cell-based
Description: as §1

[6] = system: Staphylococcus aureus X400; assay: broth micro-dilution MIC; format: cell-based
Description: as §1

[7] = system: Staphylococcus aureus SA1199A; assay: broth micro-dilution MIC; format: cell-based
Description: as §1

[8] = system: Entercoccus faecium 180-1; assay: broth micro-dilution MIC; format: cell-based
Description: as §1

[9] = system: vancomycin-resistant enterococci; assay: broth micro-dilution, mean geometric MIC; format: cell-based, Enterococcus faecium and Enterococcus faecalis; conditions: enterococci, 24-hour incubation
[10] = system: Staphylococcus aureus S13E; format: cell-based
Description: as §1

[11] = system: vancomycin-susceptible enterococci; assay: broth micro-dilution, mean geometric MIC; format: cell-based, Enterococcus faecium and Enterococcus faecalis; conditions: enterococci, 24-hour incubation
[12] = system: Enterococcus gallinarum 245; assay: broth micro-dilution MIC; format: cell-based; conditions: Enterococcus gallinarum 245
Description: (§2) The formula I compounds have in vitro and in vivo activity against Gram-positive pathogenic bacteria. The MIC's were determined using a standard broth micro-dilution assay.

Entercoccus faecium 180 = assay: broth micro-dilution MIC; format: cell-based; conditions: Entercoccus faecium 180
Description: as §2

Entercoccus faecium 2041 = assay: broth micro-dilution MIC; format: cell-based; conditions: Entercoccus faecium 2041
Description: as §2

[13] = system: Staphylococcus epidermidis 270; assay: broth micro-dilution MIC; format: cell-based
Description: as §2

[14] = system: Staphylococcus haemolyticus 105; assay: broth micro-dilution MIC; format: cell-based
Description: as §2

[15] = system: Staphylococcus haemolyticus 415; assay: broth micro-dilution MIC; format: cell-based
Description: as §2

[16] = system: Streptococcus pyogenes C203; assay: broth micro-dilution MIC; format: cell-based
Description: as §1

[17] = system: Staphylococcus aureus SA1199B; format: cell-based
Description: as §1

[18] = system: Streptococcus pneumoniae P1; assay: broth micro-dilution MIC; format: cell-based
Description: as §2

SMILES | MIC [1] [µg/mL] | MIC [2] [µg/mL] | MIC [3] [µg/mL] | MIC [4] [µg/mL] | MIC (Entercoccus faecium 276) [µg/mL] | MIC [5] [µg/mL] | MIC [6] [µg/mL] | MIC [7] [µg/mL] | MIC [8] [µg/mL] | mean geometric MIC, Vancomycin Resistant Strains [9] [µg/mL] | MIC [10] [µg/mL] | mean geometric MIC, Vancomycin Sensitive Strains [11] [µg/mL] | MIC [12] [µg/mL] | MIC (Entercoccus faecium 180) [µg/mL] | MIC (Entercoccus faecium 2041) [µg/mL] | MIC [13] [µg/mL] | MIC [14] [µg/mL] | MIC [15] [µg/mL] | MIC [16] [µg/mL] | MIC [18] [µg/mL] | further results
CNC(CC(C)C)C(=O)NC1C(=O)NC(CC(N)=O)C(=O)NC2C(=O)NC3C(=O)NC(C(=O)NC(C(=O)O)c4cc(O)cc(O)c4-c4cc3ccc4O)C(OC3CC(C)(N)C(O)C(C)O3)c3ccc(c(Cl)c3)Oc3cc2cc(c3OC2OC(CO)C(O)C(O)C2OC2CC(C)(NCc3cnc4ccccc4c3)C(O)C(C)O2)Oc2ccc(cc2Cl)C1O (centres unmarked) [Compound 28] | 0.25 (≈ 0.144 µM) | 1 (≈ 0.577 µM) | ≤ 0.06 | ≤ 0.06 | ≤ 0.06 | 0.25 (≈ 0.144 µM) | ≤ 0.06 | ≤ 0.06 | ≤ 0.06 | 4.7 | ≤ 0.06 | 0.71 | 0.25 (≈ 0.144 µM) | 1 (≈ 0.577 µM) | 0.25 (≈ 0.144 µM) | 1 (≈ 0.577 µM) | 4 (≈ 2.31 µM) | 8 (≈ 4.61 µM) |  |  | 
CNC(CC(C)C)C(=O)NC1C(=O)NC(CC(N)=O)C(=O)NC2C(=O)NC3C(=O)NC(C(=O)NC(C(=O)O)c4cc(O)cc(O)c4-c4cc3ccc4O)C(OC3CC(C)(N)C(O)C(C)O3)c3ccc(c(Cl)c3)Oc3cc2cc(c3OC2OC(CO)C(O)C(O)C2OC2CC(C)(NCc3cncc(-c4ccccc4)c3)C(O)C(C)O2)Oc2ccc(cc2Cl)C1O (centres unmarked) [Compound 101] | 0.5 (≈ 0.284 µM) | 1 (≈ 0.568 µM) | ≤ 0.06 |  | 0.125 (≈ 0.071 µM) | 0.5 (≈ 0.284 µM) | ≤ 0.06 | 0.5 (≈ 0.284 µM) | ≤ 0.06 | 4.0 |  |  | 8 (≈ 4.55 µM) |  | ≤ 0.06 | 0.5 (≈ 0.284 µM) | 1 (≈ 0.568 µM) | 8 (≈ 4.55 µM) | ≤ 0.06 | ≤ 0.06 | MIC [17]: 1 µg/mL (≈ 0.568 µM)
CNC(CC(C)C)C(=O)NC1C(=O)NC(CC(N)=O)C(=O)NC2C(=O)NC3C(=O)NC(C(=O)NC(C(=O)O)c4cc(O)cc(O)c4-c4cc3ccc4O)C(OC3CC(C)(N)C(O)C(C)O3)c3ccc(c(Cl)c3)Oc3cc2cc(c3OC2OC(CO)C(O)C(O)C2OC2CC(C)(NCc3cccc(OC(=O)C4CCCCC4)c3)C(O)C(C)O2)Oc2ccc(cc2Cl)C1O (centres unmarked) [Compound 165] | 1 (≈ 0.553 µM) | 0.5 (≈ 0.276 µM) | 2 (≈ 1.11 µM) |  | 0.5 (≈ 0.276 µM) | 0.5 (≈ 0.276 µM) | 0.5 (≈ 0.276 µM) | ≤ 0.06 | ≤ 0.06 | 4.0 | ≤ 0.06 | 0.062 | 4 (≈ 2.21 µM) | 0.5 (≈ 0.276 µM) | ≤ 0.06 | 1 (≈ 0.553 µM) | 4 (≈ 2.21 µM) | 4 (≈ 2.21 µM) | ≤ 0.06 | ≤ 0.06 | MIC [17]: 1 µg/mL (≈ 0.553 µM)
CNC(CC(C)C)C(=O)NC1C(=O)NC(CC(N)=O)C(=O)NC2C(=O)NC3C(=O)NC(C(=O)NC(C(=O)O)c4cc(O)cc(O)c4-c4cc3ccc4O)C(OC3CC(C)(N)C(O)C(C)O3)c3ccc(c(Cl)c3)Oc3cc2cc(c3OC2OC(CO)C(O)C(O)C2OC2CC(C)(NCc3ccc(OCC(O)CO)cc3)C(O)C(C)O2)Oc2ccc(cc2Cl)C1O (centres unmarked) [Compound 177] | 0.5 (≈ 0.282 µM) | 4 (≈ 2.26 µM) | ≤ 0.06 | 2 (≈ 1.13 µM) |  | 0.5 (≈ 0.282 µM) | ≤ 0.06 | 0.5 (≈ 0.282 µM) | ≤ 0.06 |  |  |  | 16 (≈ 9.03 µM) | 4 (≈ 2.26 µM) |  | 1 (≈ 0.564 µM) | 4 (≈ 2.26 µM) | 16 (≈ 9.03 µM) | 16 (≈ 9.03 µM) | 8 (≈ 4.51 µM) | 
CNC(CC(C)C)C(=O)NC1C(=O)NC(CC(N)=O)C(=O)NC2C(=O)NC3C(=O)NC(C(=O)NC(C(=O)O)c4cc(O)cc(O)c4-c4cc3ccc4O)C(OC3CC(C)(N)C(O)C(C)O3)c3ccc(c(Cl)c3)Oc3cc2cc(c3OC2OC(CO)C(O)C(O)C2OC2CC(C)(NCC3CCC4CCCC43)C(O)C(C)O2)Oc2ccc(cc2Cl)C1O (centres unmarked) [Compound 190] |  | 1 (≈ 0.583 µM) | 0.125 (≈ 0.0729 µM) | 0.125 (≈ 0.0729 µM) | 0.125 (≈ 0.0729 µM) | 0.125 (≈ 0.0729 µM) | ≤ 0.06 | ≤ 0.06 | ≤ 0.06 | 6.7 | 0.125 (≈ 0.0729 µM) | 0.29 | 8 (≈ 4.67 µM) | 8 (≈ 4.67 µM) | ≤ 0.06 | 2 (≈ 1.17 µM) | 8 (≈ 4.67 µM) | 8 (≈ 4.67 µM) | ≤ 0.06 | ≤ 0.06 | MIC [17]: 0.5 µg/mL (≈ 0.292 µM)
CCCCCCCC#Cc1ccc(CN[C@@]2(C)C[C@H](O[C@H]3[C@H](Oc4c5cc6cc4Oc4ccc(cc4Cl)[C@@H](O[C@H]4C[C@](C)(N)[C@@H](O)[C@H](C)O4)[C@@H]4NC(=O)[C@H](NC(=O)[C@@H]6NC(=O)[C@H](CC(N)=O)NC(=O)[C@H](NC(=O)[C@@H](CC(C)C)NC)[C@H](O)c6ccc(c(Cl)c6)O5)c5ccc(O)c(c5)-c5c(O)cc(O)cc5[C@@H](C(=O)O)NC4=O)O[C@H](CO)[C@@H](O)[C@@H]3O)O[C@@H](C)[C@@H]2O)cc1 [Compound 232] | 4 (≈ 2.22 µM) |  | 8 (≈ 4.43 µM) | 8 (≈ 4.43 µM) | 8 (≈ 4.43 µM) | 4 (≈ 2.22 µM) | 8 (≈ 4.43 µM) | 2 (≈ 1.11 µM) | 1 (≈ 0.554 µM) | 0.71 | 8 (≈ 4.43 µM) | 0.29 | 32 (≈ 17.7 µM) | 0.5 (≈ 0.277 µM) | 2 (≈ 1.11 µM) | 8 (≈ 4.43 µM) | 2 (≈ 1.11 µM) | 32 (≈ 17.7 µM) | ≤ 0.06 | ≤ 0.06 | MIC [17]: 32 µg/mL (≈ 17.7 µM)
CC#CCCCCCCCCCCOc1ccc(CNC2(C)CC(OC3C(Oc4c5cc6cc4Oc4ccc(cc4Cl)C(OC4CC(C)(N)C(O)C(C)O4)C4NC(=O)C(NC(=O)C6NC(=O)C(CC(N)=O)NC(=O)C(NC(=O)C(CC(C)C)NC)C(O)c6ccc(c(Cl)c6)O5)c5ccc(O)c(c5)-c5c(O)cc(O)cc5C(C(=O)O)NC4=O)OC(CO)C(O)C3O)OC(C)C2O)cc1 (centres unmarked) [Compound 233] | 4 (≈ 2.13 µM) |  | 4 (≈ 2.13 µM) | 8 (≈ 4.26 µM) | 8 (≈ 4.26 µM) | 8 (≈ 4.26 µM) | 8 (≈ 4.26 µM) | 4 (≈ 2.13 µM) | 2 (≈ 1.07 µM) | 1.7 | 8 (≈ 4.26 µM) | 1.7 |  | 2 (≈ 1.07 µM) | 2 (≈ 1.07 µM) | 8 (≈ 4.26 µM) |  |  |  | 0.5 (≈ 0.266 µM) | 
